Source: patent publication US20190030046A1, “USE OF PURE COMPOUNDS EXTRACTED FROM ANTRODIA CAMPHORATA” (priority 2016, published 2019)

Assays:
membrane GLUT4 [1] = test: Membrane GLUT4 protein expression in C2C12 myotube cells (Western blot); assay type: cell-based; conditions: 25 min
Method: (§1) In the present invention, C2C12 skeletal myoblasts (ATCC, CRL-1772) were maintained in growth media consisting of Dulbecco's modified Eagle's medium (DMEM) (Gibco BRL) and supplemented with 10% Fetal Bovine Serum (FBS) (Hyclone) and 100 U/mL penicillin/100 μg/mL streptomycin (Gibco BRL), and split 1:4 using 0.05% trypsin when 80% confluent. Myoblasts were diluted and placed in a 9 cm-diameter dish. Cells were cultured to achieve 80%-90% confluency and then the growth media was changed as 2% FBS/DMEM every 24 h for 5-7 days.
(§2) In experiments for determining GLUT4 and p-Akt(Ser473)/t-Akt proteins in tubes, differentiated C2C12 cells were serum-starved in DMEM/BSA for 2 h at 37° C. prior to incubation with MeOH crude extract (at 20, 100, 200, and 500 μg/mL), test compounds (at 1, 5, 10, and 25 μg/mL), or vehicle for 25 min, or 100 nM insulin for 25 min.
(§3) The cultures obtained by cell culture above were centrifuged, and the resulting pellet was resuspended in a homogenization buffer. The forgoing steps were performed with a filtration membrane. Protein concentrations were measured using a BCA assay (Pierce). Equal amounts of protein were diluted four times in SDS sample buffer, and subjected to SDS PAGE and Western blotting with antibodies specific for Akt, p-Akt Ser^473, and GLUT4. Density blotting analysis was performed using Alpha Easy FC software.

[2] = tested on: phospho-Akt(Ser473)/total-Akt(Ser473); test: phospho-Akt(Ser473)/total-Akt in C2C12 myotube cells (Western blot); assay type: cell-based; conditions: 25 min
Method: as §1, §2, §3

[3] = HFD-induced diabetic mice: fasting blood glucose and biochemical indexes; conditions: 4 weeks; for Blood glucose: 12 h fasted HFD mice; for Insulin / Leptin: blood
Method: The control group and HFD group contained 10% and 45% fat intake, respectively. The HFD mice were subdivided into 6 groups (9 per group) followed by 8-week induction. […] During the experiment, all mice were fasted overnight, and blood samples were collected from the retro-orbital sinus. Following four-week treatment and feeding, the food was removed, and the mice were fasted for 12 h and then sacrificed. Tissue samples required were collected from the mice and weighted. Some of the tissue samples were immediately stored at −80° C. and frozen for subsequent target gene analysis. Plasma samples were collected via centrifugation of whole blood at 1600×g for 15 min at 4° C., followed by plasma separation within 30 min. Some plasma samples obtained were used for TG and TC analysis. The metabolic parameters, including body weight, weight gain, and food intake, were performed as follows. Body weight was daily measured throughout the study. Body weight gain is considered as the difference between one day and the next day. The total weight of food intake was daily measured, followed by weighing the amount of remaining feed after 24 h. The difference indicates the daily food intake.
One part of the forgoing blood samples collected from the retro-orbital sinus of 12 h fasted mice was immediately used for analysis of glucose levels. The other part was used for analysis of blood TG, TC, free fatty acids, blood insulin, leptin, and adiponectin levels. Blood glucose levels were determined by a glucose analyzer (Model 1500 sidekick glucose analyzer, YSI). Plasma triglycerides (TG), total cholesterol (TC), and free fatty acids (FFA) were determined using commercial kits in accordance with manufacturer's instructions (Triglycerides-E test, Cholesterol-E test, and FFA-C test; Wako Pure Chemical, Osaka, Japan). Insulin and leptin levels were measured by enzyme-linked immunosorbent assay (ELISA) (mouse insulin ELISA kit, Mercodia, Uppsala, Sweden; mouse leptin ELISA kit, Morinaga, Yokohama, Japan).

[4] = HFD-induced diabetic mice: liver lipids; assay type: in vivo, C57BL/6J mice; conditions: 4 weeks
[5] = HFD-induced diabetic mice: absolute tissue weight, body weight, food intake; assay type: in vivo, C57BL/6J mice; conditions: 4 weeks
Source text: (§4) The difference indicates the daily food intake.

[6] = HFD-induced diabetic mice: histopathology (H-E) of epididymal white adipose and liver tissue; assay type: in vivo, C57BL/6J mice; conditions: epididymal white adipose, 4 weeks
Method: as §4
Examination was performed for parts of EWAT (epididymal white adipose) and liver tissue specimens collected. The specimens above were soaked in formalin and neutral buffered solution and embedded in paraffin. Parts therein (8 μm) were cut and stained with hematoxylin and eosin. Images were photographed by a microscope (Olympus BX51, Olympus, Tokyo, Japan). Please refer to FIGS. 3(A) and 3(B).

PPARγ = test: Western blot of PPARγ protein in liver and adipose tissue of HFD mice; conditions: compared to HF; HF+Metf, 0.3 g/kg/day oral, 4 weeks
aP2 = test: Semiquantitative RT-PCR in liver tissue: aP2; assay type: in vivo, C57BL/6J mice; conditions: vs HF; HF+Metf, 0.3 g/kg/day oral, 4 weeks
Method: as §4
(§5) Total RNA from liver tissue was isolated with a Trizol Reagent (Molecular Research Center, Inc., Cincinnati, Ohio, USA) according to the manufacturer's instructions. The integrity of the extracted total RNA was examined by 2% agarose gel electrophoresis, and the RNA concentration was determined by […] ultraviolet (UV) light absorbency at 260 nm and 280 nm (Spectrophotometer U-2800A, Hitachi). The total RNA (1 μg) was reverse transcribed to cDNA, and 5 μL Moloney murine leukemia virus reverse transcriptase (TEpicentre, Madison, Wis., USA). The PCR was performed in a final 25 μL containing 1 U Blend Taq-Plus (TOYOBO, Japan), 10 μL of the RT cDNA product, 10 μM of each forward (F) and reverse (R) primer, 75 mM Tris-HCL (pH 8.3) containing 1 mg/L Tween 20 (pH 8.3, also known as polyoxyethylene sorbitan monolaurate), 2.5 mM dNTP (deoxy-ribonucleoside triphosphate), and 2 mM MgCl2 (magnesium chloride). The PCR products were analyzed by 2% agarose gel and stained with ethidium bromide.

FAS = test: Western blot of FAS protein in liver and adipose tissue of HFD mice; conditions: compared to HF; HF+Metf, 0.3 g/kg/day oral, 4 weeks
Method: (§6) The HFD mice were subdivided into 6 groups (9 per group) followed by 8-week induction. […] Following four-week treatment and feeding, the food was removed, and the mice were fasted for 12 h and then sacrificed. Tissue samples required were collected from the mice and weighted. Some of the tissue samples were immediately stored at −80° C. and frozen for subsequent target gene analysis. Plasma samples were collected via centrifugation of whole blood at 1600×g for 15 min at 4° C., followed by plasma separation within 30 min.
(§7) We determined PPARα and FAS protein expression levels in liver tissue, PPARγ and FAS protein expression levels in adipose tissue, and membrane GLUT4 expression in skeletal muscle adipose. The total membrane fraction was collected with the buffer and determined as previously described. The membrane GLUT4, p-AMPK, and total AMPK protein content were determined by Western Blotting as previously described.

SREBP-1c = test: Semiquantitative RT-PCR in liver tissue: SREBP-1c; assay type: in vivo, C57BL/6J mice; conditions: vs HF; HF+Metf, 0.3 g/kg/day oral, 4 weeks
Method: as §4, §5

CPT-1a = test: Semiquantitative RT-PCR in liver tissue: CPT-1a; assay type: in vivo, C57BL/6J mice; conditions: vs HF; HF+Metf, 0.3 g/kg/day oral, 4 weeks
Method: as §4, §5

G6-Pase = test: Semiquantitative RT-PCR in liver tissue: G6-Pase; assay type: in vivo, C57BL/6J mice; conditions: vs HF; HF+Metf, 0.3 g/kg/day oral, 4 weeks
Method: as §4, §5

membrane GLUT4 [7] = test: Western blot of skeletal muscle membrane GLUT4 in HFD mice; conditions: compared to HF; HF+Metf, 0.3 g/kg/day oral, 4 weeks
Method: as §6, §7

phospho-AMPK(Thr172) = test: Western blot of phospho-AMPK(Thr172)/total-AMPK in skeletal muscle and liver of HFD mice; conditions: compared to HF; HF+Metf, 0.3 g/kg/day oral, 4 weeks
Method: as §6, §7

PPARα = test: Western blot of PPARα protein in liver of HFD mice; conditions: compared to HF; HF+Metf, 0.3 g/kg/day oral, 4 weeks
SREBP-2 = test: Semiquantitative RT-PCR in liver tissue: SREBP-2; assay type: in vivo, C57BL/6J mice; conditions: vs HF; HF+Metf, 0.3 g/kg/day oral, 4 weeks
Method: as §4, §5

GPAT = test: Semiquantitative RT-PCR in liver tissue: GPAT; assay type: in vivo, C57BL/6J mice; conditions: vs HF; HF+Metf, 0.3 g/kg/day oral, 4 weeks
Method: as §4, §5

11β-HSD1 = test: Semiquantitative RT-PCR in liver tissue: 11β-HSD1; assay type: in vivo, C57BL/6J mice; conditions: vs HF; HF+Metf, 0.3 g/kg/day oral, 4 weeks
Method: as §4, §5

[8] = HFD mice, HF+Feno, 250 mg/kg/day oral
[9] = HFD mice, HF+Metf, 300 mg/kg/day oral
[10] = plasma, HFD mice, HF+Metf, 300 mg/kg/day oral

For `C=C(CC[C@@H](C)[C@H]1CC[C@H]2C3=C(C(=O)C[C@]12C)[C@@]1(C)CC[C@@H](O)[C@](C)(O)[C@@H]1C[C@@H]3O)C(C)C(=O)O` (stereo partly shown) [AnK, Antcin K], the “protein expression level of membrane GLUT4” value (membrane GLUT4 [1]; 5, 10, and 25 μg/mL) was “increase” and the “protein expression level of phospho-Akt(Ser473)/total-Akt(Ser473)” value ([2]; AnK 10 and 25 μg/mL) was “increase”.

For `CC(C)OC(=O)C(C)(C)Oc1ccc(C(=O)c2ccc(Cl)cc2)cc1` [Feno, fenofibrate, reference compound], the Blood glucose ([3]; HF+Feno, 250 mg/kg/day oral) was 86.56 mg/dL, the “Plasma FFA” value [3, 8] was 0.86 meq/L and the Insulin [3, 8] was 2.402 µg/L. The Leptin [3, 8] was 7.507 ng/mL, the TG ([3]; plasma, HFD mice, HF+Feno, 250 mg/kg/day oral) was 83.35 mg/dL and the “Liver lipids: Total lipid” value ([4]; HF+Feno, 250 mg/kg/day oral) was 62.0 mg/g. The Liver lipids: Triacylglycerol ([4]; HF+Feno, 250 mg/kg/day oral) was 48.6 µmol/g, the Final body weight ([5]; HF+Feno, 250 mg/kg/day oral) was 26.04 g and the Food intake ([5]; HF+Feno, 250 mg/kg/day oral) was 2.05 g/day/mouse. The Weight gain ([5]; HF+Feno, 250 mg/kg/day oral) was 0.46 g and the Adipocyte area ([6]; HF+Feno, 0.25 g/kg/day oral) was 6270.5 ± 165.4 μm^2.

In the case of `CN(C)C(=N)N=C(N)N` [Metf, metformin, reference compound], the “PPARγ protein expression level in adipose tissue” value (PPARγ) is reported as “significantly decreased”, the “PPARγ protein expression level in liver” value (PPARγ) is reported as “significantly decreased” and the Blood glucose ([3]; HF+Metf, 300 mg/kg/day oral) is reported as 87.33 mg/dL. The “Plasma FFA” value [3, 9] was 0.85 meq/L, the Insulin [3, 9] was 2.467 µg/L and the Leptin [3, 9] was 7.359 ng/mL. For the same compound, the TC [3, 10] was 117.20 mg/dL, the TG [3, 10] was 82.07 mg/dL and the “aP2 mRNA expression level in liver” value (aP2) was “decreased”. For the same compound, the “FAS protein expression level in adipose tissue” value (FAS) was “significantly decreased”, the “FAS protein expression level in liver” value (FAS) was “significantly decreased” and the “SREBP-1c mRNA expression level in liver” value (SREBP-1c) was “decreased”. The “CPT-1a mRNA expression level in liver” value (CPT-1a) was “increased”, the “Liver lipids: Total lipid” value ([4]; HF+Metf, 300 mg/kg/day oral) was 61.1 mg/g and the Liver lipids: Triacylglycerol ([4]; HF+Metf, 300 mg/kg/day oral) was 49 µmol/g. The “G6-Pase mRNA expression level in liver” value (G6-Pase) was “decreased”, the “membrane expression level of GLUT4 in skeletal muscle” value (membrane GLUT4 [7]) was “significantly increased” and the “expression level of p-AMPK/t-AMPK proteins in liver” value (phospho-AMPK(Thr172)) was “significantly increased”. For the same compound, the “expression level of phospho-AMPK/total-AMPK in skeletal muscle” value (phospho-AMPK(Thr172)) was “significantly increased”, the “PPAR protein expression level in liver” value (PPARα) was “significantly increased” and the “SREBP-2 mRNA expression level in liver” value (SREBP-2) was “decreased”. For the same compound, the “GPAT mRNA expression level in liver” value (GPAT) was “decreased”, the “11β-HSD1 mRNA expression level in liver” value (11β-HSD1) was “decreased” and the Absolute tissue weight: Visceral fat ([5]; EWAT plus RWAT, HF+Metf, 300 mg/kg/day oral) was 662 mg. For the same compound, the Absolute tissue weight: Brown adipose tissue (BAT) ([5]; HF+Metf, 300 mg/kg/day oral) was 134 mg, the Absolute tissue weight: Epididymal white adipose tissue (EWAT) ([5]; HF+Metf, 300 mg/kg/day oral) was 482 mg and the Absolute tissue weight: Liver ([5]; HF+Metf, 300 mg/kg/day oral) was 1960 mg. For the same compound, the Absolute tissue weight: Mesenteric white adipose tissue (MWAT) ([5]; HF+Metf, 300 mg/kg/day oral) was 198 mg, the Absolute tissue weight: Retroperitoneal white adipose tissue (RWAT) ([5]; HF+Metf, 300 mg/kg/day oral) was 180 mg and the Absolute tissue weight: Spleen ([5]; HF+Metf, 300 mg/kg/day oral) was 81 mg. For the same compound, the Final body weight ([5]; HF+Metf, 300 mg/kg/day oral) was 26.35 g, the Food intake ([5]; HF+Metf, 300 mg/kg/day oral) was 2.25 g/day/mouse and the Weight gain ([5]; HF+Metf, 300 mg/kg/day oral) was 0.52 g. It also gave an Adipocyte area ([6]; HF+Metf, 0.3 g/kg/day oral) of 6919.5 ± 195.1 μm^2.

In the case of insulin [reference compound], the “protein expression level of membrane GLUT4” value (membrane GLUT4 [1]; 100 nM insulin) is reported as “increase” and the “protein expression level of phospho-Akt(Ser473)/total-Akt(Ser473)” value ([2]; 100 nM insulin) is reported as “increase”.
